Laboratory results published in patent EP0167245B1, “Anti-arrhythmic agents” (AMERICAN HOME PRODUCTS CORPORATION, priority 1984, dated 1986).

Tested on: rabbit aortic smooth muscle
Experiment: Ca+2 antagonism: relaxation of KCl-depolarised rabbit thoracic aorta strips
Type: cell-based
Settings: 20 min, 100 mM KCl contracted aortic strips; for inhibition at 10 µM: Oryctolagus cuniculus, test compound 1 x 10^-5 M, 20 min after addition, mean of two experiments, read-out: percent relaxation (P. R.)
Description: Here, transverse strips (10 mm x 2.5 mm) from the thoracic aorta were cut and suspended vertically in a jacketed (37 °C - 50 ml volume) organ bath in physiological saline solution (PSS) aerated with 95 % Oz/5 % CO9. The composition of PSS was as follows (mM) : NaCI 112, KCI 5, NaHC03 25, KH2PO4 1, MgS04 1.2, CaCI2 2.5, dextrose 10. The lower end of each tissue strip was attached to a fixed post and the upper end to a Statham UC-4 transducer. Changes in force development were recorded on a Beckman Dynograph Polygraphic Recorder.
Following equilibration, the muscles were contracted in a depolarizing solution of PSS in which 100 mM KCI was substituted for an equimolar concentration of NaCI. Following attainment of steady-state isometric force (20 min.), the test compound was added to afford a final concentration of 1 x 10-^5 M. The inhibitory effect, expressed as percent relaxation, was determined from the mean of two experiments twenty minutes after the addition of the compound being tested.
The following examples illustrate the preparation of a representative number of compounds of this invention. After each example, the Ca^2+ antagonist activity of the compound is presented in terms of percent relaxation (P. R.) at 10-^5 M concentration unless indicated otherwise. Similarly, the percentage mortality of standard experimental test animals upon coronary ligation (C. L.) is presented for comparison with the control mortality rate of 73 percent of animals receiving vehicle alone.

Structure (SMILES)	inhibition at 10 µM [%]	percent relaxation (P. R.) (test compound at 10-^s M as printed)
COc1ccc(CCN(C)CCCN(C(C)C)S(=O)(=O)c2ccc(OC)c(OC)c2OC)cc1OC [Example 15, N-[3-[[2-(3,4-dimethoxyphenyl)ethyl]methylamino]propyl]-N-(1-methylethyl)-2.3,4-trimethoxybenzenesul-phonamide]	80	–
COc1cc(OC)cc(N(C(C)C)S(=O)(=O)CCCN(C)CCc2ccc(OC)c(OC)c2)c1 [Example 1, N-(3,5-Dimethoxyphenyl)-3-[(2-(3,4-dimethoxyphenyl)ethyl]-methylamino]-N-(1-methylethyl)-1-prop-anesulphonamide]	90	27
COc1ccc(CCN(C)CCCCN(C(C)C)S(=O)(=O)c2ccc(Cl)c(Cl)c2)cc1OC [Example 14, 3,4-Dichloro-N-(4-[[2-(3,4-dimethoxyphenyl)ethyl]methylamino]butyl]-N-(1-methylethyl) benzenesulphonamide]	68	–
COc1ccc(CCN(C)CCCS(=O)(=O)N(c2cc(OC)c(OC)c(OC)c2)C(C)C)cc1OC [Example 3, 3-[[2-(3,4-Dimethoxyphenyl)ethyl]methylamino]-N-(1-methylethyl)-N-(3,4,5-trimethoxyphenyl)-1-prop-anesulphonamide]	62	–
COc1ccc(CCN(C)CCCS(=O)(=O)Nc2cccc(C(F)(F)F)c2)cc1OC [Example 5, N-(3-Trifluoromethylphenyl)-3-[[2-(3,4-dimethoxyphenyl)-ethyl)methylamino]-1-propanesulphonamide]	51	–
COc1ccc(CCN(C)CCCS(=O)(=O)N(c2cc(Cl)cc(Cl)c2)C(C)C)cc1OC [Example 4, N-(3,5-Dichlorophenyl)-3-[[2-(3,4-dimethoxyphenyl)ethyl]methylamino]-N-(1-methylethyl)-1-propanesulp-honamide]	86	–
COc1ccc(CCN(C)CCCN(C(C)C)S(=O)(=O)c2cccc(C(F)(F)F)c2)cc1OC [Example 7, N-[3-[[2-(3,4-Dimethoxyphenyl)ethyl]methylamino]propyl]-N-(1-methylethyl)-3-(trifluoromethyl) benzenesulphonamide]	86.6	–
COc1ccc(CCN(C)CCCS(=O)(=O)N(c2ccc(OC)c(OC)c2)C(C)C)cc1OC [Example 2, N-(3,4-Dimethoxyphenyl)-3-[[2-(3,4-dimethoxyphenyl)ethyl]methylaminol]-N-(1-methylethyl)-1-prop-anesulphonamide]	74	–
COc1ccc(CCN(C)CCCS(=O)(=O)N(c2cccc(C(F)(F)F)c2)C(C)C)cc1OC [Example 6, N-(3-Trifluoromethylphenyl)-3-[[2-(3,4-dimethoxyphenyl)ethyl]methylamino]-N-(1-methylethyl)-1-prop-anesulphonamide]	78.5	–
